Reference: PMC11855827, “High-Throughput Screening of Five Compound Libraries for Anthelmintic Activity and Toxicity Leads to the Discovery of Two Flavonoid Compounds” (International Journal of Molecular Sciences, 2025)
Like-named read-outs stand apart in the source and are kept apart here.

Test system: C. elegans
Assay: microbe, parasite or virus in culture
Conditions: Caenorhabditis elegans
[1] = 0 h, read-out: Percentage of motility inhibition 0 h, Table S2, C. elegans SS assay, 110 μM, 0 h, averages of 4 data points
[2] = 24 h, read-out: Percentage of motility inhibition 24 h, Table S2, C. elegans SS assay, 110 μM, 24 h, averages of 4 data points
[3] = 0 h, read-out: Percentage of motility inhibition 0 h
[4] = 24 h, read-out: Percentage of motility inhibition 24 h

SMILES	inhibition at 110 µM [1]	inhibition at 110 µM [2]	further results
CC(=O)O[C@@H]1[C@H]2[C@H]3C[C@H]4C5=Nc6ccccc6[C@]51C[C@@H]2N4[C@H](C)C3C=O (some centres unmarked) [Perakine]	0%	0%	
CC1(C)C(C=C(Cl)Cl)C1C(=O)OCc1cccc(Oc2ccccc2)c1 (centres unmarked) [Permethrin]	9%	7%	
O=C(O)c1cccc2nc3ccccc3nc12 [Phenazine‐1‐carboxylic acid]	0%	11%	
O=C(CCc1ccc(O)cc1)c1c(O)cc(O)cc1O[C@@H]1O[C@H](CO)[C@@H](O)[C@H](O)[C@H]1O [Phlorizin]	0%	2%	
CC1=C[C@H]2[C@@]3(O)[C@H](C)[C@@H](O)[C@]4(O)[C@H]([C@@H]3C=C(CO)C[C@]2(O)C1=O)C4(C)C [Phorbol]	0%	6%	
CC(=O)NS(=O)(=O)c1ccc(NC(=O)c2ccccc2C(=O)O)cc1 [Phthalylsulfacetamide]	32%	2%	
O=C(O)c1ccccc1C(=O)Nc1ccc(S(=O)(=O)Nc2nccs2)cc1 [Phthalylsulfathiazole]	12%	0%	
COc1cc(C(=O)O[C@H]2[C@@H]3C=CO[C@@H](O[C@@H]4O[C@H](CO)[C@@H](O)[C@H](O)[C@H]4O)[C@@H]3[C@@]3(CO)O[C@@H]23)ccc1O [Picroside II]	0%	13%	
O=C(/C=C/c1ccccc1)OC[C@H]1O[C@@H](O[C@@H]2OC=C[C@H]3[C@H](O)[C@@H]4O[C@]4(CO)[C@@H]23)[C@H](O)[C@@H](O)[C@@H]1O [Picroside I]	6%	17%	
CC(C)(O)[C@@H]1[C@H]2OC(=O)[C@@H]1[C@]1(O)C[C@H]3O[C@]34C(=O)O[C@H]2[C@]14C [Picrotin]	0%	0%	
O=C(O)[C@H]1C2CCC(CC2)[C@@H]1Nc1nc(-c2c[nH]c3ncc(F)cc23)ncc1F [Pimodivir]	7%	9%	
O=C1C[C@@H](c2ccccc2)Oc2cc(O)cc(O)c21 [Pinocembrin]	44%	5%	
COc1cc(O)c2c(c1)O[C@H](c1ccccc1)CC2=O [Pinostrobin]			inhibition at 110 µM [3]: 1%; inhibition at 110 µM [4]: 7%
CCn1cc(C(=O)O)c(=O)c2cnc(N3CCNCC3)nc21 [Pipemidic acid]	31%	14%	
C1CNCCN1 [Piperazine]	3%	0%	
O=C(/C=C/C=C/c1ccc2c(c1)OCO2)N1CCCCC1 [Piperine]	0%	21%	
CC1=CC(=O)C(C(C)C)CC1 (centres unmarked) [Piperitone]	10%	11%	
CC(C)CNC(=O)/C=C/C=C/c1ccc2c(c1)OCO2 [Piperlonguminine]	34%	22%	
CCn1cc(C(=O)O)c(=O)c2cnc(N3CCCC3)nc21 [Piromidic acid]	9%	8%	
C[C@@H]1O[C@@H](O[C@H]2[C@H](OC(=O)[C@]34CCC(C)(C)C[C@H]3C3=CC[C@@H]5[C@@]6(C)C[C@H](O)[C@H](O[C@@H]7O[C@H](CO)[C@@H](O)[C@H](O[C@@H]8O[C@H](CO)[C@@H](O)[C@H](O)[C@H]8O)[C@H]7O)C(CO)(CO)[C@@H]6CC[C@@]5(C)[C@]3(C)C[C@H]4O)OC[C@H](O)[C@@H]2O)[C@H](O)[C@H](O)[C@H]1O[C@@H]1OC[C@@H](O)[C@H](O[C@@H]2OC[C@](O)(CO)[C@H]2O)[C@H]1O [Platycodin D2]	0%	2%	
C[C@@H]1O[C@@H](O[C@H]2[C@H](OC(=O)[C@]34CCC(C)(C)C[C@H]3C3=CC[C@@H]5[C@@]6(C)C[C@H](O)[C@H](O[C@@H]7O[C@H](CO)[C@@H](O)[C@H](O)[C@H]7O)C(CO)(CO)[C@@H]6CC[C@@]5(C)[C@]3(C)C[C@H]4O)OC[C@H](O)[C@@H]2O)[C@H](O)[C@H](O)[C@H]1O[C@@H]1OC[C@@H](O)[C@H](O[C@@H]2OC[C@](O)(CO)[C@H]2O)[C@H]1O [Platycodin D]	0%	15%	
Cc1cc(CCCOc2c(C)cc(-c3noc(C(F)(F)F)n3)cc2C)on1 [Pleconaril]	4%	14%	
C=C[C@]1(C)C[C@@H](OC(=O)CO)[C@]2(C)[C@H](C)CC[C@]3(CCC(=O)[C@H]32)[C@@H](C)[C@@H]1O [Pleuromutilin]	33%	10%	
COc1cc([C@@H]2c3cc4c(cc3[C@H](O)[C@H]3COC(=O)[C@H]23)OCO4)cc(OC)c1OC [Podofilox]	0%	9%	

SMILES	inhibition at 110 µM [1]	inhibition at 110 µM [2]	further results
C[C@@H]1CC[C@]2(C(=O)O)CC[C@]3(C)C(=CC[C@@H]4[C@@]5(C)CC[C@H](O)C(C)(C)[C@@H]5CC[C@]43C)[C@@H]2[C@]1(C)O [Pomolic acid]	29%	67%	
COc1ccc([C@@H]2CC(=O)c3c(O)cc(O[C@@H]4O[C@H](CO)[C@@H](O)[C@H](O)[C@H]4O[C@@H]4O[C@@H](C)[C@H](O)[C@@H](O)[C@H]4O)cc3O2)cc1 [Poncirin]	13%	3%	
C=C1C(=O)[C@@]23[C@@H]4OC5O[C@@]2(O)[C@@H](O)[C@@H]2C(C)(C)CC[C@@H](O)[C@]52[C@@H]3CC[C@@H]14 [Ponicidin]	4%	0%	
C=C(CC[C@@H](C(=O)O)[C@H]1[C@H](O)C[C@@]2(C)C3=CC[C@@H](C(=C)C)[C@](C)(CCC(=O)O)C3=CC[C@]12C)C(C)C [Poricoic acid A]			inhibition at 110 µM [3]: 2%; inhibition at 110 µM [4]: 8%
C=C(C)[C@@H]1CC=C2C(=CC[C@]3(C)[C@@H]([C@@H](CCC=C(C)C)C(=O)O)[C@H](O)C[C@@]23C)[C@@]1(C)CCC(=O)O [Poricoic acid B]	14%	0%	
CC[C@@H]([C@H](C)O)n1ncn(-c2ccc(N3CCN(c4ccc(OC[C@@H]5CO[C@@](Cn6cncn6)(c6ccc(F)cc6F)C5)cc4)CC3)cc2)c1=O [Posaconazole]	23%	0%	
O=C(C1CCCCC1)N1CC(=O)N2CCc3ccccc3C2C1 (centres unmarked) [Praziquantel]	27%	0%	
O=C(O)CCc1nc2ccccc2[nH]1 [Procodazole]			inhibition at 110 µM [3]: 0%; inhibition at 110 µM [4]: 3%
Oc1cc(O)c2c(c1)O[C@H](c1ccc(O)c(O)c1)[C@H](O)[C@H]2c1c(O)cc(O)c2c1O[C@H](c1ccc(O)c(O)c1)[C@H](O)C2 [Procyanidin B2]	14%	27%	
Oc1cc(O)c2c(c1)O[C@H](c1ccc(O)c(O)c1)[C@H](O)[C@H]2c1c(O)cc(O)c2c1O[C@H](c1ccc(O)c(O)c1)[C@H](O)[C@H]2c1c(O)cc(O)c2c1O[C@H](c1ccc(O)c(O)c1)[C@H](O)C2 [Procyanidin C1]	2%	29%	
CC(=O)[C@H]1CC[C@H]2[C@@H]3CCC4=CC(=O)CC[C@]4(C)[C@H]3CC[C@]12C [Progesterone]	0%	12%	
[H]/N=C(\N/C(=N/[H])Nc1ccc(Cl)cc1)NC(C)C [Proguanil]	36%	6%	
CNC(=O)Oc1ccccc1OC(C)C [Propoxur]	16%	9%	
CC(C)NCC(O)COc1cccc2ccccc12 (centres unmarked) [Propranolol, reference compound]	0%	0%	inhibition at 110 µM (0 h, read-out: Inhibition (%) 110 μM (0 h), C. elegans L4 motility, 110 μM, 0 h, mean ± SD of four experiments): 84%; inhibition at 110 µM (24 h, read-out: Inhibition (%) 110 μM (24 h), C. elegans L4 motility, 110 μM, 24 h, mean ± SD of four experiments): 35%
CCCOC(=O)c1cc(O)c(O)c(O)c1 [Propyl gallate]	1%	0%	
CCCc1cc(C(N)=S)ccn1 [Prothionamide]	44%	7%	
C=CC1=C(C)c2cc3[nH]c(cc4nc(cc5[nH]c(cc1n2)c(C)c5CCC(=O)O)C(CCC(=O)O)=C4C)c(C)c3C=C [Protoporphyrin IX]	3%	17%	
Cc1oc(=O)oc1CN1CCN(c2cc3c(cc2F)c(=O)c(C(=O)O)c2n3C(C)S2)CC1 (centres unmarked) [Prulifloxacin]	27%	0%	
COc1cc(O)c2c(=O)c(-c3ccc(O)cc3)coc2c1 [Prunetin]	0%	7%	
O=C1C[C@@H](c2ccc(O)cc2)Oc2cc(O[C@@H]3O[C@H](CO)[C@@H](O)[C@H](O)[C@H]3O)cc(O)c21 [Prunin]	13%	2%	
CC1(C)CC[C@]2(C(=O)O[C@@H]3O[C@H](CO)[C@@H](O)[C@H](O)[C@H]3O)CC[C@]3(C)C(=CC[C@@H]4[C@@]5(C)CC[C@H](O[C@@H]6O[C@H](C(=O)O)[C@@H](O)[C@H](O)[C@H]6O[C@@H]6OC[C@@H](O)[C@H](O)[C@H]6O)C(C)(C)[C@@H]5CC[C@]43C)[C@@H]2C1 [Pseudoginsenoside RT1]	1%	0%	
CC(=O)O[C@]12CCC(C)=CC[C@]13CC[C@H]2[C@@](C)(/C=C/C=C(\C)C(=O)O)OC3=O [Pseudolaric Acid A]	6%	13%	
COC(=O)C1=CC[C@@]23CC[C@@H]([C@@](C)(/C=C/C=C(\C)C(=O)O)OC2=O)[C@@]3(OC(C)=O)CC1 [Pseudolaric Acid B]			inhibition at 110 µM [3]: 0%; inhibition at 110 µM [4]: 9%
CC(=O)O[C@]12CCC(C(=O)O)=CC[C@]13CC[C@H]2[C@@](C)(/C=C/C=C(\C)C(=O)O)OC3=O [Pseudolaric Acid C2]	0%	0%	
